Test results as given in US4904764A, “4-diazo-3-methyl-2,5-cyclohexadine-1-one and pharmacetically acceptable salts thereof” (E. R. Squibb & Sons, Inc., priority 1985, dated 1990).
Values after ≈ are worked out from the molar mass of the structure shown.

Assays:
[1] = system: Pseudomonas anaerobius SC11263; test: Agar dilution assay, anaerobic bacteria (MIC); assay type: cell-based; details: DST agar, 10^5 CFU, 37° C., 18 hours, anaerobic chamber
[2] = Photolability (half-life); assay type: physicochemical; details: exposure to light; read-out: photolabile, half-life
[3] = system: Pseudomonas aeruginosa SC8333; test: Agar dilution assay, aerobic test organisms (MIC); details: SC8333, 18 h
[4] = system: Bacteroides fragilis SC10277; test: Agar dilution assay, anaerobic bacteria (MIC); assay type: cell-based; details: B. fragilis SC10277, DST agar, 10^5 CFU, 37° C., 18 hours, anaerobic chamber
[5] = system: Clostridium septicum SC1780; test: Agar dilution assay, anaerobic bacteria (MIC); assay type: cell-based; details: SC1780, 18 h
Experimental: The susceptibility of a number of anaerobic bacteria was also determined by an agar dilution technique. Test organisms were prepared from 24-48 hour cultures grown in Chopped Meat Broth (Scott Laboratories, Fiskeville, R.I.) or from washings from chocolate agar slants. These slants were prepared by adding hemoglobin to Proteose #3 Agar (Difco) to a concentration of one percent. The growth was washed off the slants with Brain Heart Infusion Broth (BBL Microbiology Systems) and diluted to a density of 10^8 CFU/ml. The subject compound was dissolved in the appropriate diluent at a concentration of 1000 μg/ml.
The agar dilution assays yielded the following results: […]

[6] = system: Fusobacterium necrophorum SC10338; test: Agar dilution assay, anaerobic bacteria (MIC); assay type: cell-based; details: F. necrophorum SC10338, DST agar, 10^5 CFU, 37° C., 18 hours, anaerobic chamber
[7] = system: Bacteroides fragilis SC11085; test: Agar dilution assay, anaerobic bacteria (MIC); assay type: cell-based; details: B. fragilis SC11085, DST agar, 10^5 CFU, 37° C., 18 hours, anaerobic chamber
[8] = system: Shigella sonnei SC8449; test: Agar dilution assay, aerobic test organisms (MIC); assay type: cell-based; details: S. sonnei SC8449, K-10 agar, 10^4 CFU, 37° C., 18 hours, protected from light
[9] = system: Escherichia colid SC10909; test: Agar dilution assay, aerobic test organisms (MIC); details: SC10909, 18 h
[10] = system: Klebsiella pneumoniae SC9527; test: Agar dilution assay, aerobic test organisms (MIC); details: SC9527, 18 h
[11] = system: Streptococcus faecalis SC9011; test: Agar dilution assay, aerobic test organisms (MIC); details: Enterococcus faecalis, SC9011, 18 h
[12] = system: Escherichia coli SC10896; test: Agar dilution assay, aerobic test organisms (MIC); details: SC10896, 18 h
[13] = system: Salmonella typhosa SC1195; test: Agar dilution assay, aerobic test organisms (MIC); details: Salmonella enterica, 18 h
[14] = system: Streptococcus agalactiae SC9287; test: Agar dilution assay, aerobic test organisms (MIC); details: SC9287, 18 h
[15] = system: Proteus mirabilis SC3855; test: Agar dilution assay, aerobic test organisms (MIC); details: SC3855, 18 h
[16] = system: Klebsiella aerogenes SC10440; test: Agar dilution assay, aerobic test organisms (MIC); details: SC10440, 18 h
[17] = system: Staphylococcus aureus SC2400; test: Agar dilution assay, aerobic test organisms (MIC); details: SC2400, 18 h
[18] = system: Bacteroides thetaiotamicron SC9005; test: Agar dilution assay, anaerobic bacteria (MIC); assay type: cell-based; details: B. thetaiotamicron SC9005, DST agar, 10^5 CFU, 37° C., 18 hours, anaerobic chamber
[19] = system: Clostridium perfringens SC11256; test: microbe, parasite or virus in culture; assay type: cell-based; details: SC11256, 18 h
[20] = system: Bacteroides thetaiotamicron SC10278; test: Agar dilution assay, anaerobic bacteria (MIC); assay type: cell-based; details: B. thetaiotamicron SC10278, DST agar, 10^5 CFU, 37° C., 18 hours, anaerobic chamber
[21] = system: Escherichia coli SC8294; test: Agar dilution assay, aerobic test organisms (MIC); details: SC8294, 18 h
[22] = system: Hemophilus vaginalis SC9640; test: Agar dilution assay, anaerobic bacteria (MIC); assay type: cell-based; details: Gardnerella vaginalis; H. vaginalis SC9640; DST agar, 10^5 CFU, 37° C., 18 hours, anaerobic chamber
[23] = system: Bacteroides fragilis SC9844; test: Agar dilution assay, anaerobic bacteria (MIC); assay type: cell-based; details: B. fragilis SC9844, DST agar, 10^5 CFU, 37° C., 18 hours, anaerobic chamber
[24] = system: Hemophilus vaginalis SC8568; test: Agar dilution assay, anaerobic bacteria (MIC); assay type: cell-based; details: Gardnerella vaginalis; H. vaginalis SC8568; DST agar, 10^5 CFU, 37° C., 18 hours, anaerobic chamber
[25] = system: Clostridium difficile SC11251; test: Agar dilution assay, anaerobic bacteria (MIC); assay type: cell-based; details: Clostridioides difficile; C. difficile SC11251; DST agar, 10^5 CFU, 37° C., 18 hours, anaerobic chamber
[26] = system: Staphylococcus aureus SC1276; test: Agar dilution assay, aerobic test organisms (MIC); details: SC1276, 18 h
[27] = system: Enterobacter cloacae SC8236; test: Agar dilution assay, aerobic test organisms (MIC); details: SC8236, 18 h
[28] = system: gram positive and gram negative bacteria; test: Antibacterial activity (general statement); assay type: cell-based
[29] = system: Staphylococcus aureus SC2399; test: Agar dilution assay, aerobic test organisms (MIC); details: SC2399, 18 h

## COC1=CC(=O)C=CC1=[N+]=[N-]
[1]
  MIC: < 0.05 µg/mL
[2]
  half-life: < 2 h
[3]
  MIC: 25 µg/mL (≈ 167 µM)
[4]
  MIC: 0.4 µg/mL (≈ 2.66 µM)
[5]
  MIC: < 0.05 µg/mL
[6]
  MIC: < 0.05 µg/mL
[7]
  MIC: 0.2 µg/mL (≈ 1.33 µM)
[8]
  MIC: 1.6 µg/mL (≈ 10.7 µM)
[9]
  MIC: 3.1 µg/mL (≈ 20.6 µM)
[10]
  MIC: 25 µg/mL (≈ 167 µM)
[11]
  MIC: 6.3 µg/mL (≈ 42 µM)
[12]
  MIC: 6.3 µg/mL (≈ 42 µM)
[13]
  MIC: 1.6 µg/mL (≈ 10.7 µM)
[14]
  MIC: 6.3 µg/mL (≈ 42 µM)
[15]
  MIC: 3.1 µg/mL (≈ 20.6 µM)
[16]
  MIC: 12.5 µg/mL (≈ 83.3 µM)
[17]
  MIC: 12.5 µg/mL (≈ 83.3 µM)
[18]
  MIC: 0.4 µg/mL (≈ 2.66 µM)
[19]
  MIC: 0.2 µg/mL (≈ 1.33 µM)
[20]
  MIC: 0.4 µg/mL (≈ 2.66 µM)
[21]
  MIC: 3.1 µg/mL (≈ 20.6 µM)
[22]
  MIC: 0.4 µg/mL (≈ 2.66 µM)
[23]
  MIC: 0.4 µg/mL (≈ 2.66 µM)
[24]
  MIC: 0.2 µg/mL (≈ 1.33 µM)
[25]
  MIC: 0.4 µg/mL (≈ 2.66 µM)
[26]
  MIC: 2.5 µg/mL (≈ 16.7 µM)
[27]
  MIC: 50 µg/mL (≈ 333 µM)
[28]
  activity against bacteria: activity against a variety of gram positive and gram negative bacteria, particularly against anaerobic bacteria
[29]
  MIC: 12.5 µg/mL (≈ 83.3 µM)
